The target of experiment [1] is DGKζ (Homo sapiens (Human), UniProt Q13574). Description: Biochemical DGK IC50 assay, DGKζ ADP-Glo assay. To be noted: 0.5 nM enzyme, 140 μM ATP, 80 μM DAG; read-out: DGKζ ADP-Glo assay IC50. The gist of the method:
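Full-length human DGKζ, His-TEV tagged and purified from baculovirus-infected Sf9 cells, assayed by ADP-Glo with DAG/PS lipid micelle substrate prepared in 25 mM HEPES pH 7.0 with octyl glucoside. Final compound concentrations spanned 1.55–10000 nM or 23.3–150000 nM.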

The target in experiment [2] is DGKα (Homo sapiens (Human), UniProt P23743). Description: Biochemical DGK IC50 assay, DGKα ADP-Glo assay. To be noted: 7.5 nM enzyme, 140 μM ATP, 80 μM DAG. The gist of the method:
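ADP-Glo read-out with full-length DGKα on DAG/PS lipid micelle substrate in 25 mM HEPES pH 7.0, 0.5 mM EDTA, 160 mM octyl β-D-glucopyranoside. Compound final concentrations spanned 1.55˜10000 nM or 23.3˜150000 nM.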

Where only a bound is given, the exact number is not on record here.

Chain of DGKζ (Q13574 other isoform, or with tags, fused parts or gaps): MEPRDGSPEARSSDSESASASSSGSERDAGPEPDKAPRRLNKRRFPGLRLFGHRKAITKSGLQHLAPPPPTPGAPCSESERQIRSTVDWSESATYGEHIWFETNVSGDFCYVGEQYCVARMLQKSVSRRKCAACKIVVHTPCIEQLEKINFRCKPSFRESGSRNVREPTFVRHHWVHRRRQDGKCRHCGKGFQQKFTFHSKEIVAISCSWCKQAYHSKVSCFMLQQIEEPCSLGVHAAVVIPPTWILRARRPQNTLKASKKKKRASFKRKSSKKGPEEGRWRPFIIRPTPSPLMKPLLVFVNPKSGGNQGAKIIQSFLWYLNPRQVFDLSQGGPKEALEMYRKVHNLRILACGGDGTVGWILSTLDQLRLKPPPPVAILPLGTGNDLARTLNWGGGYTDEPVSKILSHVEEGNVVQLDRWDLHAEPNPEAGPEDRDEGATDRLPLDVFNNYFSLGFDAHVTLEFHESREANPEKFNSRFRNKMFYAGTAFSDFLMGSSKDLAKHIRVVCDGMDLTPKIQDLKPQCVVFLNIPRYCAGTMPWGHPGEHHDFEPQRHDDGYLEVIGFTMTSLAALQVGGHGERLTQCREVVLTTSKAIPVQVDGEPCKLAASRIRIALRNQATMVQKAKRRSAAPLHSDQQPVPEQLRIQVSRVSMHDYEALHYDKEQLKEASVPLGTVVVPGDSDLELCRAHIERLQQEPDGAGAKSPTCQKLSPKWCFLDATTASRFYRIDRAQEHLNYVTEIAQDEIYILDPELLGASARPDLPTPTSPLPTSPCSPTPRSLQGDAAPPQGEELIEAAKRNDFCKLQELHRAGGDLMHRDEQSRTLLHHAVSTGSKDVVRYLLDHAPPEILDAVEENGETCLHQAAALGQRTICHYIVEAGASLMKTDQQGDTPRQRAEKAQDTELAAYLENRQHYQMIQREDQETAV
Chain of DGKα (P23743 whole entry): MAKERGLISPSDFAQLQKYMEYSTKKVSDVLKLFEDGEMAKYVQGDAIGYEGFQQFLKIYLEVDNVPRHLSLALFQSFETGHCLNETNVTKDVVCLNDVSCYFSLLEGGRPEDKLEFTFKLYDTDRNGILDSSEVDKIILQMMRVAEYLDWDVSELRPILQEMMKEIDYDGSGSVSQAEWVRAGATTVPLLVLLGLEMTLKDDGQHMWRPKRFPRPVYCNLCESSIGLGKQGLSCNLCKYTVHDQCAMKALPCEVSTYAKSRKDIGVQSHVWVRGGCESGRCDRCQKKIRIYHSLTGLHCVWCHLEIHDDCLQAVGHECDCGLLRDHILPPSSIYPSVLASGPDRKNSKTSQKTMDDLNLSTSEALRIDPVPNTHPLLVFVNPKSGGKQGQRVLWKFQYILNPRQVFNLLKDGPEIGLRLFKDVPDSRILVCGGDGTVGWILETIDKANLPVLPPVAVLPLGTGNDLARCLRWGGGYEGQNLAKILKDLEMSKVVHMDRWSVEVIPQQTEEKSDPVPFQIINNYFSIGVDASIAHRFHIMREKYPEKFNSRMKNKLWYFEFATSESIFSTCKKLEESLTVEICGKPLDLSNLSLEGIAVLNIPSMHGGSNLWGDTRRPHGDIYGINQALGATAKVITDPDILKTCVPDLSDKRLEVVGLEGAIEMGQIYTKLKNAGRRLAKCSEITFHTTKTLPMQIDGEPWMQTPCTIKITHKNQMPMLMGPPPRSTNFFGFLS

For `CC[C@H]1CN(C(C)c2ccc(F)nc2)[C@H](CC)CN1c1cc(=O)n(C)c2cn(CC#N)nc12` (single isomer, unassigned) [Compound A353a], the concentration for half-maximal inhibition (IC50) is 0.19 µM in experiment [1] and 0.032 µM in experiment [2].
The like results for `CC[C@H]1CN(C(C)c2ccc(F)nc2)[C@H](CC)CN1c1cc(=O)n(C)c2cn(CC#N)nc12` (single isomer, unassigned) [Compound A353b] were, in that order, 2.49 µM and 0.797 µM.
Taken in the same sequence, the figures for `CC[C@H]1CN(C(C)c2ncc(C(F)(F)F)cc2F)[C@H](CC)CN1c1cc(=O)n(C)c2cn(CC#N)nc12` (single isomer, unassigned) [Compound A354a] were 3.13 µM and 0.996 µM.
In the case of `CC[C@H]1CN(C(C)c2ncc(C(F)(F)F)cc2F)[C@H](CC)CN1c1cc(=O)n(C)c2cn(CC#N)nc12` (single isomer, unassigned) [Compound A354b], the concentration for half-maximal inhibition (IC50) in experiment [1] was 0.26 µM; in experiment [2], 0.13 µM.
Taken in the same sequence, the figures for `CC[C@H]1CN(C(C)c2cnc(C)c(C)n2)[C@H](CC)CN1c1cc(=O)n(C)c2cn(CC#N)nc12` (single isomer, unassigned) [Compound A355a] were 6.42 µM and 10.9 µM.
Turning to `CC[C@H]1CN(C(C)c2cnc(C)c(C)n2)[C@H](CC)CN1c1cc(=O)n(C)c2cn(CC#N)nc12` (single isomer, unassigned) [Compound A355b], the IC50 in experiment [1] is 0.176 µM; in experiment [2], 2.15 µM.
The like results for `CC[C@H]1CN(C(C)c2cnc3c(n2)CCCC3)[C@H](CC)CN1c1cc(=O)n(C)c2cn(CC#N)nc12` (single isomer, unassigned) [Compound A357a] were, in that order, 2.54 µM and 2.45 µM.
The like results for `CC[C@H]1CN(C(C)c2cnc3c(n2)CCCC3)[C@H](CC)CN1c1cc(=O)n(C)c2cn(CC#N)nc12` (single isomer, unassigned) [Compound A357b] were, in that order, 0.012 µM and 0.646 µM.
Take `CC[C@H]1CN(C(C)c2ccc(Cl)cn2)[C@H](CC)CN1c1cc(=O)n(C)c2cn(CC#N)nc12` (single isomer, unassigned) [Compound A360a]: the concentration for half-maximal inhibition (IC50) was determined as 3.8 µM in experiment [1] and 0.142 µM in experiment [2].
Take `CC[C@H]1CN(C(C)c2ccc(Cl)cn2)[C@H](CC)CN1c1cc(=O)n(C)c2cn(CC#N)nc12` (single isomer, unassigned) [Compound A360b]: the figures for the IC50 in experiment [1] and in experiment [2] were 0.134 µM and 0.0027 µM, respectively.
Taken in the same sequence, the figures for `CC[C@H]1CN(C(C)c2ncc(OC(F)(F)F)cc2F)[C@H](CC)CN1c1cc(=O)n(C)c2cn(CC#N)nc12` (single isomer, unassigned) [Compound A362a] were 2.51 µM and 0.922 µM.
For the compound `CC[C@H]1CN(C(C)c2ncc(OC(F)(F)F)cc2F)[C@H](CC)CN1c1cc(=O)n(C)c2cn(CC#N)nc12` (single isomer, unassigned) [Compound A362b], the values for the 50% inhibitory concentration (IC50) in experiment [1] and in experiment [2] were 0.3 µM and 0.033 µM, respectively.
`CC[C@H]1CN(C(C)c2cc3cnccc3cn2)[C@H](CC)CN1c1cc(=O)n(C)c2cn(CC#N)nc12` (single isomer, unassigned) [Compound A368a]: the IC50 is 6.65 µM in experiment [1] and 4.9 µM in experiment [2].
Regarding `CC[C@H]1CN(C(C)c2cc3cnccc3cn2)[C@H](CC)CN1c1cc(=O)n(C)c2cn(CC#N)nc12` (single isomer, unassigned) [Compound A368b], the IC50 in experiment [1] was found to be 0.382 µM; in experiment [2], 0.091 µM.
Consider `CC[C@H]1CN(C(C)c2ccc(CN3CCC(F)(F)CC3)nc2)[C@H](CC)CN1c1cc(=O)n(C)c2cn(CC#N)nc12` (single isomer, unassigned) [Compound A381a], for which the values for the IC50 in experiment [1] and in experiment [2] were 0.29 µM and 0.459 µM, respectively.
The like results for `CC[C@H]1CN(C(C)c2ccc(CN3CCC(F)(F)CC3)nc2)[C@H](CC)CN1c1cc(=O)n(C)c2cn(CC#N)nc12` (single isomer, unassigned) [Compound A381b] were, in that order, 2.33 µM and 2.09 µM.
Taken in the same sequence, the figures for `CC[C@H]1CN(C(C)c2ccc(CN3CCOCC3)cc2)[C@H](CC)CN1c1cc(=O)n(C)c2cn(CC#N)nc12` (single isomer, unassigned) [Compound A383a] were 0.158 µM and 0.245 µM.
The like results for `CC#CCn1cc2c(n1)c(N1C[C@@H](CC)N(C(C)c3ccc4c(c3)OC(F)(F)O4)C[C@@H]1C)cc(=O)n2C` (single isomer, unassigned) [Compound A392a] were, in that order, 1.48 µM and 1.32 µM.
For the compound `CC#CCn1cc2c(n1)c(N1C[C@@H](CC)N(C(C)c3ccc4c(c3)OC(F)(F)O4)C[C@@H]1C)cc(=O)n2C` (single isomer, unassigned) [Compound A392b], the figures for the IC50 in experiment [1] and in experiment [2] were over 10 µM and 1.07 µM, respectively.
`CC#CCn1cc2c(n1)c(N1C[C@@H](CC)N(C(C)c3cnc4ccccc4n3)C[C@@H]1C)cc(=O)n2C` (single isomer, unassigned) [Compound A394a]: the half-maximal inhibitory concentration (IC50) came out at 5.4 µM in experiment [1] and 0.454 µM in experiment [2].
The like results for `CC#CCn1cc2c(n1)c(N1C[C@@H](CC)N(C(C)c3cnc4ccccc4n3)C[C@@H]1C)cc(=O)n2C` (single isomer, unassigned) [Compound A394b] were, in that order, 0.125 µM and 0.03 µM.
On to `CC(c1ccc2nccnc2c1)N1C[C@H](C)N(c2cc(=O)n(C)c3c[nH]nc23)C[C@H]1C` (stereo partly drawn) [Compound A1, 7-((2S,5R)-2,5-dimethyl-4-(1-(quinoxalin-6-yl)ethyl)piperazin-1-yl)-4-methyl-2,4-dihydro-5H-pyrazolo[4,3-b]pyridin-5-one], for which the IC50 was over 150 µM in experiment [1] and 1.8 µM in experiment [2].
As for `C[C@@H]1CN(c2cc(=O)n(C)c3cn(CC#N)nc23)[C@@H](C)CN1[C@@H](C)c1ccc2nccnc2c1` [Compound A2a, 2-(7-((2S,5R)-2,5-dimethyl-4-((S)-1-(quinoxalin-6-yl)ethyl)piperazin-1-yl)-4-methyl-5-oxo-4,5-dihydro-2H-pyrazolo[4,3-b]pyridin-2-yl)acetonitrile], the values for the concentration for half-maximal inhibition (IC50) in experiment [1] and in experiment [2] were 0.052 µM and 4.8 µM, respectively.
Taken in the same sequence, the figures for `C[C@@H]1CN(c2cc(=O)n(C)c3cn(CC#N)nc23)[C@@H](C)CN1[C@H](C)c1ccc2nccnc2c1` [Compound A2b, 2-(7-((2S,5R)-2,5-dimethyl-4-((R)-1-(quinoxalin-6-yl)ethyl)piperazin-1-yl)-4-methyl-5-oxo-4,5-dihydro-2H-pyrazolo[4,3-b]pyridin-2-yl)acetonitrile] were 13 µM and 19 µM.
Taken in the same sequence, the figures for `CC(c1ccc2nccnc2c1)N1C[C@H](C)N(c2cc(=O)n(C)c3cn(C)nc23)C[C@H]1C` (some centres unmarked) [Compound A3] were 3.8 µM and 3.2 µM.
The like results for `COCCn1cc2c(n1)c(N1C[C@@H](C)N(C(C)c3ccc4nccnc4c3)C[C@@H]1C)cc(=O)n2C` (some centres unmarked) [Compound A5] were, in that order, 3.5 µM and 21 µM.
On to `CC(c1ccc2nccnc2c1)N1C[C@H](C)N(c2cc(=O)n(C)c3cn(CC(N)=O)nc23)C[C@H]1C` (some centres unmarked) [Compound A6], for which the IC50 in experiment [1] and in experiment [2] was over 150 µM each time.
Turning to `COC(=O)Cn1cc2c(n1)c(N1C[C@@H](C)N(C(C)c3ccc4nccnc4c3)C[C@@H]1C)cc(=O)n2C` (some centres unmarked) [Compound A7], the half-maximal inhibitory concentration (IC50) was 1.03 µM in experiment [1] and over 10 µM in experiment [2].
`CC(c1ccc2nccnc2c1)N1C[C@H](C)N(c2cc(=O)n(C)c3cn(C(C)C#N)nc23)C[C@H]1C` (some centres unmarked) [Compound A8]: the figures for the half-maximal inhibitory concentration (IC50) in experiment [1] and in experiment [2] were 0.57 µM and 31 µM, respectively.
For the compound `CC(c1ccc2nccnc2c1)N1C[C@H](C)N(c2cc(=O)n(C)c3cn(CCO)nc23)C[C@H]1C` (some centres unmarked) [Compound A9], the 50% inhibitory concentration (IC50) in experiment [1] was found to be 30 µM; in experiment [2] it was 27 µM.
Taken in the same sequence, the figures for `CC(c1ccc2nccnc2c1)N1C[C@H](C)N(c2cc(=O)n(C)c3cn(CC4CC4)nc23)C[C@H]1C` (some centres unmarked) [Compound A10] were 18 µM and 110 µM.
Taken in the same sequence, the figures for `CC(c1ccc2nccnc2c1)N1C[C@H](C)N(c2cc(=O)n(C)c3cn(CCN(C)C)nc23)C[C@H]1C` (some centres unmarked) [Compound A11] were over 150 µM and over 150 µM.
Taken in the same sequence, the figures for `CC(c1ccc2nccnc2c1)N1C[C@H](C)N(c2cc(=O)n(C)c3cn(CC4CO4)nc23)C[C@H]1C` (some centres unmarked) [Compound A12] were 2.2 µM and over 150 µM.
`CC(c1ccc2nccnc2c1)N1C[C@H](C)N(c2cc(=O)n(C)c3cn(S(C)(=O)=O)nc23)C[C@H]1C` (some centres unmarked) [Compound A13]: the figures for the concentration for half-maximal inhibition (IC50) in experiment [1] and in experiment [2] were 3.7 µM and 5.9 µM, respectively.
`CC(c1ccc2nccnc2c1)N1C[C@H](C)N(c2cc(=O)n(C)c3cn(C4CCC4)nc23)C[C@H]1C` (some centres unmarked) [Compound A14]: the half-maximal inhibitory concentration (IC50) in experiment [1] was 12 µM; in experiment [2], 52 µM.
Taken in the same sequence, the figures for `CC(c1ccc2nccnc2c1)N1C[C@H](C)N(c2cc(=O)n(C)c3cn(C(=O)C4CC4)nc23)C[C@H]1C` (some centres unmarked) [Compound A15] were 34 µM and 5.9 µM.
The like results for `CC(c1ccc2nccnc2c1)N1C[C@H](C)N(c2cc(=O)n(C)c3cn(C4(C#N)CC4)nc23)C[C@H]1C` (stereo partly drawn) [Compound A16, 1-(7-((2S,5R)-2,5-dimethyl-4-(1-(quinoxalin-6-yl)ethyl)piperazin-1-yl)-4-methyl-5-oxo-4,5-dihydro-2H-pyrazolo[4,3-b]pyridin-2-yl)cyclopropane-1-carbonitrile] were, in that order, 4.2 µM and 9.6 µM.
